# Experimental data as given in US20250312320A1, “METHOD AND TREATMENT FOR OSTEOARTHRITIS AND DISEASES OF CHONDROCYTE HYPERTROPHY” (The Royal Veterinary College, priority 2022, published 2025).
# “Also recorded” adds a separate entry of the source.
# Legend:
# [1] = tested on: primary equine chondrocytes; test: Primary equine chondrocyte micromass treated with BI1347: gene expression; assay type: cell-based; conditions: 1 μM
# Method: (§1) Articular cartilage was isolated, placed into a petri dish containing phosphate buffer saline (PBS) supplemented with 2% Ab/Am (PBS-Ab/Am) and transferred to a laminar flow hood for processing. Cartilage shavings were minced using a sterile scalpel to approximately 1 mm^3 and washed in fresh PBS-Ab/Am by centrifugation at 500×g for 10 minutes. Supernatant was removed and the cartilage pellet resuspended in 5 ml TrypLE™ (Gibco) before incubation at 37° C. for 10 minutes with gentle agitation. Dissociated cartilage fragments were pelleted and washed to remove excess TrypLE and resuspended in DMEM-complete media (DMEM/F12 (Gibco), 1% Ab/Am, 10% FBS) supplemented with 2 mg/ml Collagenase Type II and incubated overnight at 37° C. with gentle agitation. The cartilage digest was pelleted, washed and subsequently resuspended in DMEM-complete. Released cells were counted using a haematocytometer and seeded at 10,000 cells per cm^2. The cultures were incubated at 37° C., 5% CO2 in a humidified incubator for 2 days before refreshing DMEM-complete every 2 days until confluency. For differentiation experiments, primary chondrocytes were differentiated in DMEM/F12 containing 2% FBS, 1% Ab/Am, 1× Insulin-Transferrin-Selenium premix, 10 ng/ml TGFβ3 (primary chondrocyte differentiation media).
# For primary equine chondrocytes, chondrocytes were seeded in 10 μl micromasses as above and differentiated for 14 days in presence of primary chondrocyte differentiation media supplemented with 1 μM BI1347 before processing for gene expression analysis as described above.
# ATDC5 micromass = test: IL-1β induced extracellular matrix degradation of ATDC5 micromass: gene expression; assay type: cell-based, mouse
# Method: To mimic this route of cartilage degradation in vitro, 10 μl ATDC5 micromasses were seeded and differentiated in the presence of 1 μM BI1347 or DMSO for 11 days to allow for sufficient ECM deposition. Cells were then serum starved for 24 hours in differentiation media containing 1% FBS before treatment with 1 μM BI1347 or DMSO for 1 hour and subsequent induction of ECM degradation by co-treatment with 10 ng/ml IL-1β (PeproTech) for 48 hours. Compound only conditions were used as a negative control and additional micromasses were differentiated in the presence of 1 μM BI1347 for the entire culture period to observe whether pre-treatment of ATDC5 with BI1347 alters cellular responses to IL-1B. On day 14 micromasses were stained with alcian blue and leached as previous and RNA extracted for gene expression analysis as above.
# [2] = tested on: zebrafish embryo endochondral jaw bone; test: Zebrafish jaw analysis of hypertrophic zones; assay type: in vivo, zebrafish (Danio rerio); conditions: 50 nM or 100 nM, 24 hpf to 5 dpf, vs DMSO
# Method: Several bones during zebrafish (Danio rerio) craniofacial development exist via endochondral ossification, thus the developing zebrafish embryo is a useful in vivo model of chondrocyte hypertrophy (Dietrich et al. (2021) “Skeletal Biology and Disease Modeling in Zebrafish”. J Bone Miner Res, 36:436-458. https://doi.org/10.1002/jbmr.4256). Embryos at 24 hpf were cultured in the E3 water ([…], 0.17 mM KCl, 0.33 mM CaCl2, 0.33 mM MgSO4, and 0.1% Methylene Blue) in the presence of 50 nM or 100 nM MSC2530818 or DMSO control up until 5 dpf, with E3 water refreshed every 2 days. At 5 dpf embryos were fixed in 4% PFA overnight at 4° C. before washing in 70% EtOH for 10 mins followed by 50% EtOH for a further 10 mins. Specimens were then incubated in alcian blue stain (0.1% Alcian blue, 70% EtOH, 30% Glacial acetic acid) overnight with gentle agitation before 30 min washes in 100, 80, 70% EtOH and 0.1% PBST. Specimens were digested for 1 hour in enzyme solution (10 mg/ml trypsin in 30% saturated sodium tetraborate) followed by a 1-hour incubation in bleaching solution (3% hydrogen peroxide, 1% potassium hydroxide). Specimens were washed in 0.1% PBST and stored in 70% glycerol at 4° C. until imaging. Jaw sections were dissected and the number of enlarged cells within the entopterygoid/ceratohyal region were counted.
# [3] = tested on: ihMSC (TERT immortalised human mesenchymal stromal cell line); test: ihMSC micromasses in chondrogenesis and IL1β OA disease degradation model; assay type: cell-based; conditions: 100 nM
# Method: (§2) Additional experiments were carried out on primary chondrocytes (equine, canine and human) and ihMSC (TERT immortalised human mesenchymal stromal cell line) to investigate whether CDK8i protects from IL-1β induced degradation when added throughout the entirety of differentiation/IL-1β treatment. Briefly, ihMSCs were seeded at a density of 5×10^4 cells per 10 μl micromass and differentiated in ihMSC chondrogenic media (1% FBS, 1% Ab/Am, 1× Insulin-Transferrin-Selenium premix, 10 μM Y-27632, 100 nM dexamethasone, 50 μg/ml ascorbic acid, 20 ng/ml TGF-β3 (Peprotech)). Primary chondrocytes were seeded at 2.7×10^5 cells per 10 μl micromass and differentiated in primary chondrocyte differentiation media. All micromasses were differentiated for 12 days in the presence of 100 nM […] or DMSO. Some micromasses were processed for gene expression analysis/alcian blue staining on day 12, whilst others were treated with IL-β media (1% FBS, 1% Ab/Am, 10 ng/ml IL-1B) and CDK8i for 48-hours before processing for alcian blue staining/gene expression analysis on day 14 as previously described.
# [4] = tested on: STR/Ort mouse (spontaneous osteoarthritis); test: STR/Ort mouse 12 week study: gait analysis; assay type: in vivo; conditions: 5 mg/kg intermittently
# Method: Following the pilot study, a larger in vivo study using the STR/Ort OA mouse model was conducted. Str/ORT male mice aged 22 weeks (post OA onset) were dosed with either DMSO (N=5) or MSC2530818 5 mg/kg (N=6) intermittently as above for 12 weeks.
# On week 11 mice were placed on the DigiGate™ system (MouseSpecifics), a treadmill based video gait analysis software. For Gait analysis, each mouse was placed on the DigiGate™ and allowed to acclimatise for 5 minutes, the belt speed was then set to 13 cm/s for 10 seconds to capture videos of mice whilst walking. Videos were then cropped to 5 seconds of active walking and number of steps per hind limb was counted for each mouse.
# [5] = tested on: primary human articular chondrocytes; test: Primary human articular chondrocytes in chondrogenesis and IL1β OA disease model: gene expression; assay type: cell-based; conditions: 100 nM; for MATN3 gene expression, increase vs DMSO / SMOC2 gene expression, increase vs DMSO: N=1
# Method: as §1, §2
# [6] = 1 μM days 12-14, with 10 ng/ml IL-1β
# [7] = 1 μM throughout differentiation, 10 ng/ml IL-1β days 12-14
smiles,measurement,setting,value
CN(C)C(=O)Cn1cc(-c2ccc(-c3cncc4ccccc34)cc2)cn1 [BI1347],"ACAN expression, increase vs DMSO",[1]; day 14,14 fold
same,RUNX2 expression vs DMSO,[1]; day 14,identical; also recorded: no increase
same,"SOX9 expression, increase vs DMSO",[1]; day 14 (N.S),1.5 fold
same,"COL2A1 expression, increase vs DMSO","[1]; day 14, N=1",9 fold
same,"ACAN expression, increase vs DMSO",ATDC5 micromass; [6],3 fold
same,"COL2A1 expression, increase vs DMSO",ATDC5 micromass; [6],1.5 fold
same,"COL2A1 expression, increase vs DMSO","ATDC5 micromass; 1 μM days 12-14, without IL-1β",1.7 fold
same,"ACAN expression, increase vs DMSO","ATDC5 micromass; 1 μM days 12-14, without IL-1β (N.S)",1.2 fold
same,"ACAN expression, increase vs DMSO",ATDC5 micromass; [7],20 fold
same,"COL2A1 expression, increase vs DMSO",ATDC5 micromass; [7],3 fold
Cc1n[nH]c2ncc(C(=O)N3CCC[C@H]3c3ccc(Cl)cc3)cc12 [MSC2530818],size of the hypertrophic region and number of enlarged/hypertrophic cells,[2],dose dependent reduction
same,"ADAMTS5 gene expression, reduction vs DMSO",[3],1.3 fold
same,"ACAN gene expression, increase vs DMSO",[3]; OA disease model (+IL1β),1.6 fold
same,"MATN3 gene expression, increase vs DMSO",[3]; OA disease model (+IL1β),3 fold
same,glycosaminoglycan (GAG; alcian blue stain) intensity vs DMSO,[3]; both conditions (−IL1β and +IL1β),increase
same,"ACAN gene expression, increase vs DMSO",[3]; chondrogenic (−IL1β),3 fold
same,"MATN3 gene expression, increase vs DMSO",[3]; chondrogenic (−IL1β),4 fold
same,gait symmetry (left/right step ratio),[4]; week 11,modified step symmetry; also recorded: closer to 1
same,"number of steps per second, rear left limb, increase vs DMSO","[4]; week 11, MSC N=6, DMSO N=5",1.25 fold
same,"number of steps per second, rear right limb, increase vs DMSO","[4]; week 11, MSC N=6, DMSO N=5",1.5 fold
same,"ADAMTS5 gene expression, reduction vs DMSO","[5]; OA disease model (+IL1β), p=0.053",2.5 fold
same,"MATN3 gene expression, increase vs DMSO",[5]; chondrogenic (−IL1β),100 fold
same,"SMOC2 gene expression, increase vs DMSO",[5]; chondrogenic (−IL1β),6 fold
same,"MATN3 gene expression, increase vs DMSO",[5]; disease model (+IL1β),12 fold
same,"SMOC2 gene expression, increase vs DMSO",[5]; disease model (+IL1β),7 fold
